Reference: publication PMC12257413, “Discovery of a Novel sp^3‑Rich M1 Positive Allosteric Modulators (PAMs) Chemotype via Scaffold Hopping” (ACS Medicinal Chemistry Letters, 2025)

Target: T1, rat muscarinic receptor subtype 1 (M1) (Rattus norvegicus, UniProt P08482)
T1 construct: expressed in transfected cells
T1 sequence (P08482 1-460): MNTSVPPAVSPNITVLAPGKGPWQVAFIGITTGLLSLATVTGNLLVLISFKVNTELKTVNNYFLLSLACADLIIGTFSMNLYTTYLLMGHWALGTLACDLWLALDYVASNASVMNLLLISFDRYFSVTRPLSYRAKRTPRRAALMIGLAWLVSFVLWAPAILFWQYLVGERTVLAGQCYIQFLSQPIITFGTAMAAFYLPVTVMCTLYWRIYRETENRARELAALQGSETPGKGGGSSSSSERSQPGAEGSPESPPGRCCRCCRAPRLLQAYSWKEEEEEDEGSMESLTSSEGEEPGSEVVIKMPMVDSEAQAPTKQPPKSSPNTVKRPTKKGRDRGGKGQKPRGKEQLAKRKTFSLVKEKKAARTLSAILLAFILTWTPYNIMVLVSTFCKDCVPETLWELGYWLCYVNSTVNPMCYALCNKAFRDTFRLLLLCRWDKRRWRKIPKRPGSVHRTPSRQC
Test: Calcium mobilization assay in rM1-CHO cells, PAM activity with EC20 acetylcholine
Format: cell-based
Conditions: for EC50: read-out: rM1 pEC50 ± SEM (converted)
Experimental: page 2: Procedures for Biological Experiments Calcium mobilization assays: To measure the functional activity of positive allosteric modulator (PAM) compounds in a cellular assay, human or rat muscarinic receptor subtype 1 (M1) was stably expressed in the Chinese hamster ovary (CHO) cells to evoke an increase in intracellular calcium to an EC20 concentration of acetylcholine (ACh) agonist. The stable M1-CHO cells were cultured in F12 medium containing 10% fetal bovine serum, 20 mM HEPES, 100 units/mL antibiotics/antimycotic, 0.5 mg/ml G418. All reagents used were from Life Technologies (Carlsbad, CA) unless otherwise noted. Briefly, the day before the assay, stable M1-CHO cells (15,000 cells/20 μL/well) were plated in black-walled, clear-bottomed, 384 well plates (Greiner Bio-One, Monroe, NC) in the culture medium without G418, and then incubated overnight at 37 °C in the presence of 5% CO2. The next day, calcium assay buffer (Hank’s balanced salt solution (HBSS), 20 mM HEPES, 2.5 mM Probenecid, 4.16 mM sodium bicarbonate (Sigma-Aldrich, St. Louis, MO) was prepared to dilute […] calcium indicator dye. […] curves in DMSO using the Bravo Liquid Handler (Agilent, Santa Clara, CA), transferred to a 384 well daughter plates using an Echo acoustic liquid handler (Beckman Coulter, Indianapolis, Indiana), and diluted in assay Buffer to a 2X final concentration. The agonist plates were prepared using acetylcholine (ACh, Sigma-Aldrich, St. Louis, MO) concentrations for the EC20 and ECMAX responses by diluting in assay buffer to a 5X final concentration. The 2X dye solution (2.3 µM) was prepared by mixing a 2.3 mM Fluo-4-AM stock in DMSO with 10% (w/v) pluronic acid F- 127 in a 1:1 ratio in assay buffer. Using a microplate washer (BioTek, Winooski, VT), cells were washed with assay buffer for 3 times to remove medium. After the final wash, 20 μL of assay buffer remained in the cell plates. Immediately, 20 μL of the 2X dye solution (final 1.15 µM) was added to each well of the cell plate using a Multidrop Combi dispenser (Thermo Fisher, Waltham, MA). After cells were incubated with the dye solutions for 45 min at 37 °C in the presence of 5% CO2, the dye solutions were removed and replaced with assay buffer using a microplate washer, leaving 20 μL of assay buffer in the cell plate. The compound, agonist, and cell plates were placed inside the Functional Drug Screening System uCell (FDSS uCell, Hamamatsu, Japan) to measure the calcium flux. The triple add protocol was used to measure Ca kinetics; Compound, ACh for EC20, and ACh for ECMAX adds in an order. Briefly, after establishment of a fluorescence baseline S2 page 3: for 2 seconds (excitation, 480 nm; emission, 530 nm), first add occurred by adding 20 µL of test compound to the cells, and the response was measured for 140 seconds. This is followed by second add; 10 µL (5X) of an EC20 concentration of ACh agonist was added to the cells, and the response of the cells was measured for 125 seconds. Immediately, the third add occurred by adding 12 ul assay buffer or 5X of an EC max concentration of ACh and the response of the cells was measured for 90 seconds. Assay buffer was added to the wells that incubated with compounds followed by EC20 concentration of ACh. Agonists containing ECmax concentration of ACh were added to the wells that incubated with DMSO and assay buffer from the 1st and 2nd adds to measure maximum Ca responses (ECmax). Calcium fluorescence was recorded as fold over basal fluorescence and raw data were normalized to the maximal response to ACh agonist. […]

Row | Compound | rM1 %ACh Max ± SEM | EC50
1 | Cn1cc(-c2ccc(Cc3cc(C(=O)N[C@H]4CCOC[C@@H]4O)nn3C3CCCC3)cc2)cn1 [17g] | 83 ± 4.1 %ACh Max | 347 nM
2 | Cn1cc(-c2ccc(Cc3cc(C(=O)N[C@H]4CCCC[C@@H]4O)nn3C3CCCC3)cc2)cn1 [17k] | 83 ± 2.8 %ACh Max | 490 nM
